Experiments:
[1] = system: Human multiple myeloma cell (MM.1S); test: Tumor cell proliferation inhibition (CellTiter-Meiluncell luminescent cell viability assay); details: for inhibition at 0.01 µM / IC50 / inhibition at 0.5 µM: Homo sapiens, MM1.S, 96 h; for inhibition at 0.01 µM: read-out: Inhibition Rate at 10 nM (%); for IC50: read-out: Inhibitory activity (IC50, nM) on tumor cell proliferation, MM.1S; for inhibition at 0.5 µM: read-out: Inhibition Rate at 500 nM (%)
GSPT1 = test: Western blot, degradation of substrate protein in hPBMCs; assay type: cell-based, Human; details: Western blot, 24 hours of compound treatment, compounds tested at 50 nM and 500 nM (concentration for the table not stated)
[2] = molecular target: T1, human Cereblon WT GST-tagged protein (Homo sapiens, UniProt Q96SW2); test: CRBN-binding affinity, HTRF (CEREBLON BINDING kit); details: for IC50: CRBN binding, HTRF, 3 hours at room temperature, read-out: HTRF IC50
T1 construct: purchased CISBIO 64BDCRBNPEH
T1 sequence (Q96SW2 whole entry): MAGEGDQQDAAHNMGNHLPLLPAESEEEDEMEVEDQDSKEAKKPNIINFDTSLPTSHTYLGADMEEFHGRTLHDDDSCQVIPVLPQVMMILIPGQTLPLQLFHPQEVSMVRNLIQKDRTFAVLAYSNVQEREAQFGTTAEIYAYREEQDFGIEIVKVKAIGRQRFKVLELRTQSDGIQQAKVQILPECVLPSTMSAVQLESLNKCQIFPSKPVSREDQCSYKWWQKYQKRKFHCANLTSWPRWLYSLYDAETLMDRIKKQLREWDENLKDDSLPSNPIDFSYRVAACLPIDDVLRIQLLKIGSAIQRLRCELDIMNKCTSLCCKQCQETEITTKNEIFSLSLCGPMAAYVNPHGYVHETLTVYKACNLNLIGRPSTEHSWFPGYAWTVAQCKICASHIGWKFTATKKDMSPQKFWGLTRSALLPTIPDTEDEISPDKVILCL

WEE1 = molecular target: T2, WEE1 (Homo sapiens, UniProt P30291+Q96SW2); test: Western blot, degradation of substrate protein in hPBMCs; assay type: cell-based; details: Western blot, 24 hours of compound treatment, compounds tested at 50 nM and 500 nM (concentration for the table not stated)
T2 construct: effects of the compounds of the present disclosure on the expression of target proteins in cells; endogenous in cells; host or cells: human PBMCs (Milecell Biotechnologies)
T2 sequence (P30291 whole entry): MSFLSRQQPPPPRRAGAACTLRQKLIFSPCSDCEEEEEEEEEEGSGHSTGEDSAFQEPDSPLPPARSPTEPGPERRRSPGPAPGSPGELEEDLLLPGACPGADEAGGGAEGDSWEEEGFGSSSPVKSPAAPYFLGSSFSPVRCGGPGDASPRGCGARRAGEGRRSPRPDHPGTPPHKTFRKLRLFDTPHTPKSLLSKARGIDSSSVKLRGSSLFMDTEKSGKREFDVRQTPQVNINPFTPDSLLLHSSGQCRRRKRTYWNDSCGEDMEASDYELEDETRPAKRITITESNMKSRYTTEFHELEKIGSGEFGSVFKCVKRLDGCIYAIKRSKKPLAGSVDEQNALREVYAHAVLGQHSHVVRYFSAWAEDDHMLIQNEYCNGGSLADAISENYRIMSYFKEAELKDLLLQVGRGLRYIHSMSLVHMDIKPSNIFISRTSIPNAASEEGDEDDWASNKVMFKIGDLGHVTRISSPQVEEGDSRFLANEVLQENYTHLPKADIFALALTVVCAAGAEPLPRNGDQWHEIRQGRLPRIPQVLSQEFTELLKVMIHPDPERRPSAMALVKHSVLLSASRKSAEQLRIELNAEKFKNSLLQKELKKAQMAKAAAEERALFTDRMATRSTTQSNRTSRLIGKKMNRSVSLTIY
T2 sequence (Q96SW2 whole entry): as the sequence (Q96SW2 whole entry) above
T2 sequence (Q16531 whole entry partner): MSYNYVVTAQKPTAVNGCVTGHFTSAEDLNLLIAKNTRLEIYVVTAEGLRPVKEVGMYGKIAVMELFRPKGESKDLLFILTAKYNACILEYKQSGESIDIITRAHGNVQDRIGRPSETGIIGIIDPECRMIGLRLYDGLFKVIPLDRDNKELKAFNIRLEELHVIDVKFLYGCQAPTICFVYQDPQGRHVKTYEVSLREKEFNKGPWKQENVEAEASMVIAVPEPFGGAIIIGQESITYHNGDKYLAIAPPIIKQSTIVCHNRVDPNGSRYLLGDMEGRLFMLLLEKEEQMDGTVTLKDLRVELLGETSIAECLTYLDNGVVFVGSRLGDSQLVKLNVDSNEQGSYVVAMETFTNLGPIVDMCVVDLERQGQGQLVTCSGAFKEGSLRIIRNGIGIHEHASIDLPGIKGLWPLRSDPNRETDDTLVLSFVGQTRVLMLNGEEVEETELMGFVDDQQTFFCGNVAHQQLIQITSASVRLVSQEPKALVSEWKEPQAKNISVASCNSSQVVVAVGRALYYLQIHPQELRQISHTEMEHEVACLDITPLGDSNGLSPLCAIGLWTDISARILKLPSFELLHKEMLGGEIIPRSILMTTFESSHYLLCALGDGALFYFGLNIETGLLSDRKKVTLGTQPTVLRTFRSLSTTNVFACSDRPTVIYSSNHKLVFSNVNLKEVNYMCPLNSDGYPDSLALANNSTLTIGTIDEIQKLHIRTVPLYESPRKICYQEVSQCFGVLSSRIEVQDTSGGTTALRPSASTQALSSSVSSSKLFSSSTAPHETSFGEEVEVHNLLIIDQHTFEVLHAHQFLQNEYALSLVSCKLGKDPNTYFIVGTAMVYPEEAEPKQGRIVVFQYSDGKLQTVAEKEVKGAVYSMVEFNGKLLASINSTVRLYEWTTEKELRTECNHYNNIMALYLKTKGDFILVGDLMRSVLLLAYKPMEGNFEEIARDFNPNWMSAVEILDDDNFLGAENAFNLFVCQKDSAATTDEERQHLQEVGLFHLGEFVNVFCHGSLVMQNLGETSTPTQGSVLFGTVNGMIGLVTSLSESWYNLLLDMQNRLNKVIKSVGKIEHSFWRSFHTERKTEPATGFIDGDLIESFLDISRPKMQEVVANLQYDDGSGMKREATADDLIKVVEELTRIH

CK1α = molecular target: T3, CK1α (Homo sapiens, UniProt P48729+Q96SW2); test: as above; assay type: cell-based; details: Western blot, 24 hours of compound treatment, compounds tested at 50 nM and 500 nM (concentration for the table not stated)
T3 construct: effects of the compounds of the present disclosure on the expression of target proteins in cells; endogenous in cells; host or cells: human PBMCs (Milecell Biotechnologies)
T3 sequence (P48729 whole entry): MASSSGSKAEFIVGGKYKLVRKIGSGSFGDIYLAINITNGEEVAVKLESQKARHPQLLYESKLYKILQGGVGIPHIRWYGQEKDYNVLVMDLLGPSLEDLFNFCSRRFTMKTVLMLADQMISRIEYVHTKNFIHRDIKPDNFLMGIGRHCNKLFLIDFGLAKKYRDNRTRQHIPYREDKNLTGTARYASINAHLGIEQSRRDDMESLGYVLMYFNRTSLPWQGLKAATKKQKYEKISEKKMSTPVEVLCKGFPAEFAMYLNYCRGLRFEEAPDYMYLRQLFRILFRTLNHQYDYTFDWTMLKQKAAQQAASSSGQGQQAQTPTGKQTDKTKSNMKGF
T3 sequence (Q96SW2 whole entry): as the sequence (Q96SW2 whole entry) above
T3 sequence (Q16531 whole entry partner): as the sequence (Q16531 whole entry partner) above

IKZF1 = molecular target: T4, IKZF1 (Homo sapiens, UniProt Q13422+Q96SW2); test: as above; assay type: cell-based; details: Western blot, 24 hours of compound treatment, compounds tested at 50 nM and 500 nM (concentration for the table not stated)
T4 construct: effects of the compounds of the present disclosure on the expression of target proteins in cells; endogenous in cells; host or cells: human PBMCs (Milecell Biotechnologies)
T4 sequence (Q13422 whole entry): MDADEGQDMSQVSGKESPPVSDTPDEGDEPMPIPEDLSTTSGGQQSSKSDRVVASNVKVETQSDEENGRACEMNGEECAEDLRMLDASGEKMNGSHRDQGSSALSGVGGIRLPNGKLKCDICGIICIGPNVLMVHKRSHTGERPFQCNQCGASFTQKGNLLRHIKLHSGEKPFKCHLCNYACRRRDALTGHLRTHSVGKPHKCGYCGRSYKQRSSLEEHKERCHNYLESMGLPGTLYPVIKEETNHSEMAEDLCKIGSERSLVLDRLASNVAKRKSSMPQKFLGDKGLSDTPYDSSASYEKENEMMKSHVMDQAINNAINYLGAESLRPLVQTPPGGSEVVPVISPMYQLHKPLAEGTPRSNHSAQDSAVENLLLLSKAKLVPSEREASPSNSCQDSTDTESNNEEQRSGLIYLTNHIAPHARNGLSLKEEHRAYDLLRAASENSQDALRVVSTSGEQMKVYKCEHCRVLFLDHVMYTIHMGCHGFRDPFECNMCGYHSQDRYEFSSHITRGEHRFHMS
T4 sequence (Q96SW2 whole entry): as the sequence (Q96SW2 whole entry) above
T4 sequence (Q16531 whole entry partner): as the sequence (Q16531 whole entry partner) above

IKZF3 = molecular target: T5, IKZF3 (Homo sapiens, UniProt Q96SW2+Q9UKT9); test: as above; assay type: cell-based; details: Western blot, 24 hours of compound treatment, compounds tested at 50 nM and 500 nM (concentration for the table not stated)
T5 construct: effects of the compounds of the present disclosure on the expression of target proteins in cells; endogenous in cells; host or cells: human PBMCs (Milecell Biotechnologies)
T5 sequence (Q9UKT9 whole entry): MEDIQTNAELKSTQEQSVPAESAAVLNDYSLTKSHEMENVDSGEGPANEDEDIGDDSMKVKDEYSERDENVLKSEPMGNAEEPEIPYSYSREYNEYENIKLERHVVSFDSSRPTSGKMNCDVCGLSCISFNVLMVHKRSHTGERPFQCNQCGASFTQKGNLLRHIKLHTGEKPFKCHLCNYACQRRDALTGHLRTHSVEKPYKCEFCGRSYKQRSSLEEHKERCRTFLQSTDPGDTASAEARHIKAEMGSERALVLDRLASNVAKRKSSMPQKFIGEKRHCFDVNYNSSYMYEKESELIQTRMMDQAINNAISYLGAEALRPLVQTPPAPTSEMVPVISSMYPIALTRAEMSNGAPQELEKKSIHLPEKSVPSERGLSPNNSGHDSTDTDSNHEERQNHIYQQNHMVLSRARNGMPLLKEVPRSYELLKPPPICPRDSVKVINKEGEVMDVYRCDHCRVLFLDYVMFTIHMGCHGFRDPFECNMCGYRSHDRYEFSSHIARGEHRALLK
T5 sequence (Q96SW2 whole entry): as the sequence (Q96SW2 whole entry) above
T5 sequence (Q16531 whole entry partner): as the sequence (Q16531 whole entry partner) above

IKZF2 = molecular target: T6, IKZF2 (Homo sapiens, UniProt Q96SW2+Q9UKS7); test: as above; assay type: cell-based; details: Western blot, 24 hours of compound treatment, compounds tested at 50 nM and 500 nM (concentration for the table not stated)
T6 construct: effects of the compounds of the present disclosure on the expression of target proteins in cells; endogenous in cells; host or cells: human PBMCs (Milecell Biotechnologies)
T6 sequence (Q9UKS7 whole entry): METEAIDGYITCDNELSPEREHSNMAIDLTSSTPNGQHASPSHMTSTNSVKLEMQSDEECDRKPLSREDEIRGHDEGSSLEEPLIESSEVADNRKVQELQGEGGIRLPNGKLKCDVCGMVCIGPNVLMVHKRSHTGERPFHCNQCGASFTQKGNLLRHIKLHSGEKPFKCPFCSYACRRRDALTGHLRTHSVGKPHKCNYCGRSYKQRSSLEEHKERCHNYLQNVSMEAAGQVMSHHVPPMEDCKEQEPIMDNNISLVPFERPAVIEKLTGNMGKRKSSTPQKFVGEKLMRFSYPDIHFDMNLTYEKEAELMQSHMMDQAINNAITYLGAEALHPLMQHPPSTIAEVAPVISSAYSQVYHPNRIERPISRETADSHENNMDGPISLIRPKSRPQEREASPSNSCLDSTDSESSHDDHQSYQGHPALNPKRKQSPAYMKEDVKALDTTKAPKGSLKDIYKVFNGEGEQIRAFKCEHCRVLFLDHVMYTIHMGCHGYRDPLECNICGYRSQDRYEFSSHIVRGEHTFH
T6 sequence (Q96SW2 whole entry): as the sequence (Q96SW2 whole entry) above
T6 sequence (Q16531 whole entry partner): as the sequence (Q16531 whole entry partner) above

Row | SMILES | inhibition at 0.5 µM ([2]; read-out: Inhibition Rate at 0.5 µM (%)) [%] | inhibition at 2 µM ([2]; read-out: Inhibition Rate at 2 µM (%)) [%] | IC50 [1] [nM] | IC50 [2] [µM] | inhibition at 0.01 µM [1] [%] | Inhibition Rate at 500 nM (%) ([1]; MM.1S, 500 nM, 96 hours) | GSPT1 substrate protein remaining % (GSPT1) | Wee1 substrate protein remaining % (WEE1) | CK1α substrate protein remaining % (CK1α) | IKZF 1 substrate protein remaining % (IKZF1) | IKZF3 substrate protein remaining % (IKZF3) | IKZF2 substrate protein remaining % (IKZF2) | inhibition at 0.5 µM [1] [%]
1 | O=C1CCC(N2Cc3cc(CN4CCN(C(c5ccccc5)c5ccccn5)CC4)ccc3C2=S)C(=O)N1 (stereo not drawn) [GT-05103, 3-(5-((4-(phenyl(pyridin-2-yl)methyl)piperazin-1-yl)methyl)-1-thioxoisoindolin-2-yl)piperidine-2,6-dione] |  |  | 10 to 50 | 0.1 to 0.5 |  |  | A (0% ≤ substrate protein remaining % ≤ 80%) | B (80%< substrate protein remaining %≤ 100%) | B (80%< substrate protein remaining %≤ 100%) | B (80%< substrate protein remaining %≤ 100%) | B (80%< substrate protein remaining %≤ 100%) | B (80%< substrate protein remaining %≤ 100%) | 
2 | O=C1CCC(N2Cc3cc(CN4C5CC4CN(c4cccc(Cl)c4Cl)C5)ccc3C2=S)C(=O)N1 (stereo not drawn) [GT-05182, 3-(5-((3-(2,3-dichlorophenyl)-3,6-diazabicyclo[3.1.1]heptan-6-yl)methyl)-1-thioxoisoindolin-2-yl)piperidine-2,6-dione] |  |  | 100 to 500 | 0.1 to 0.5 |  |  | A (0% ≤ substrate protein remaining % ≤ 80%) | A (0% ≤ substrate protein remaining % ≤ 80%) | B (80%< substrate protein remaining %≤ 100%) | B (80%< substrate protein remaining %≤ 100%) | B (80%< substrate protein remaining %≤ 100%) | B (80%< substrate protein remaining %≤ 100%) | 
3 | O=C1CCC(N2Cc3c(CN4CCC(c5ccccc5F)CC4)cccc3C2=S)C(=O)N1 (stereo not drawn) [GT-08595, 3-(4-((4-(2-fluorophenyl)piperidin-1-yl)methyl)-1-thioxoisoindolin-2-yl)piperidine-2,6-dione] |  |  |  |  | 40 to 50 |  | B (80%< substrate protein remaining %≤ 100%) | A (0% ≤ substrate protein remaining % ≤ 80%) | B (80%< substrate protein remaining %≤ 100%) | B (80%< substrate protein remaining %≤ 100%) | B (80%< substrate protein remaining %≤ 100%) | A (0% ≤ substrate protein remaining % ≤ 80%) | 50 to 60
4 | O=C1CCC(N2Cc3c(CN4CCC(c5ccc(F)cc5)CC4)cccc3C2=S)C(=O)N1 (stereo not drawn) [GT-08596, 3-(4-((4-(4-fluorophenyl)piperidin-1-yl)methyl)-1-thioxoisoindolin-2-yl)piperidine-2,6-dione] |  |  |  |  | 40 to 50 |  | B (80%< substrate protein remaining %≤ 100%) | A (0% ≤ substrate protein remaining % ≤ 80%) | B (80%< substrate protein remaining %≤ 100%) | B (80%< substrate protein remaining %≤ 100%) | B (80%< substrate protein remaining %≤ 100%) | A (0% ≤ substrate protein remaining % ≤ 80%) | 50 to 60

The next lines start with results.

Row | inhibition at 0.5 µM ([2]; read-out: Inhibition Rate at 0.5 µM (%)) [%] | inhibition at 2 µM ([2]; read-out: Inhibition Rate at 2 µM (%)) [%] | IC50 [1] [nM] | IC50 [2] [µM] | SMILES | inhibition at 0.01 µM [1] [%] | Inhibition Rate at 500 nM (%) ([1]; MM.1S, 500 nM, 96 hours) | GSPT1 substrate protein remaining % (GSPT1) | Wee1 substrate protein remaining % (WEE1) | CK1α substrate protein remaining % (CK1α) | IKZF 1 substrate protein remaining % (IKZF1) | IKZF3 substrate protein remaining % (IKZF3) | IKZF2 substrate protein remaining % (IKZF2) | inhibition at 0.5 µM [1] [%]
5 | 30 to 40 | 60 to 80 |  |  | O=C1CCC(N2Cc3c(CN4C[C@H]5C[C@@H]4CN5c4cccc(Cl)c4Cl)cccc3C2=S)C(=O)N1 (stereo in doubt) [GT-08467, 3-(4-(((1R,4R)-5-(2,3-dichlorophenyl)-2,5-diazabicyclo[2.2.1]heptan-2-yl)methyl)-1-thioxoisoindolin-2-yl)piperidine-2,6-dione] | 10 to 20 | la7 | A (0% ≤ substrate protein remaining % ≤ 80%) | B (80%< substrate protein remaining %≤ 100%) | B (80%< substrate protein remaining %≤ 100%) | B (80%< substrate protein remaining %≤ 100%) | B (80%< substrate protein remaining %≤ 100%) | A (0% ≤ substrate protein remaining % ≤ 80%) | 
6 |  |  | 50 to 100 | 0.1 to 0.5 | Cc1ccc(C2CCN(Cc3ccc4c(c3)CN(C3CCC(=O)NC3=O)C4=S)CC2)s1 (stereo not drawn) [GT-05112, 3-(5-((4-(5-methylthiophen-2-yl)piperidin-1-yl)methyl)-1-thioxoisoindolin-2-yl)piperidine-2,6-dione] |  |  | A (0% ≤ substrate protein remaining % ≤ 80%) | B (80%< substrate protein remaining %≤ 100%) | B (80%< substrate protein remaining %≤ 100%) | A (0% ≤ substrate protein remaining % ≤ 80%) | A (0% ≤ substrate protein remaining % ≤ 80%) | B (80%< substrate protein remaining %≤ 100%) | 
7 |  |  | 100 to 500 | 0.1 to 0.5 | Cc1cscc1C1CCN(Cc2ccc3c(c2)CN(C2CCC(=O)NC2=O)C3=S)CC1 (stereo not drawn) [GT-05146, 3-(5-((4-(4-methylthiophen-3-yl)piperidin-1-yl)methyl)-1-thioxoisoindolin-2-yl)piperidine-2,6-dione] |  |  | A (0% ≤ substrate protein remaining % ≤ 80%) | A (0% ≤ substrate protein remaining % ≤ 80%) | B (80%< substrate protein remaining %≤ 100%) | A (0% ≤ substrate protein remaining % ≤ 80%) | B (80%< substrate protein remaining %≤ 100%) | B (80%< substrate protein remaining %≤ 100%) | 
8 |  |  | 50 to 100 | 0.1 to 0.5 | O=C1CCC(N2Cc3cc(CN4C[C@@H]5C[C@H]4CN5c4cccc(Cl)c4Cl)ccc3C2=S)C(=O)N1 (stereo partly drawn) [GT-05183, 3-(5-(((1S,4S)-5-(2,3-dichlorophenyl)-2,5-diazabicyclo[2.2.1]heptan-2-yl)methyl)-1-thioxoisoindolin-2-yl)piperidine-2,6-dione] |  |  | A (0% ≤ substrate protein remaining % ≤ 80%) | B (80%< substrate protein remaining %≤ 100%) | B (80%< substrate protein remaining %≤ 100%) | B (80%< substrate protein remaining %≤ 100%) | A (0% ≤ substrate protein remaining % ≤ 80%) | B (80%< substrate protein remaining %≤ 100%) | 

— patent EP4745135A1 (Gluetacs Therapeutics (Shanghai) Co., Ltd., priority 2023, dated 2025)
